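Assay format: 96-well plates, 48-hour exposure. The concentration for 50% growth inhibition is given as GI50. TGI: total growth inhibition.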
Key:
Experiment in all cases: NCI tumour cell line growth inhibition, 48 h
[1] = system: A498 renal
[2] = system: A549 NSCLC
[3] = system: SR leukemia
[4] = system: UACC-257 melanoma
[5] = system: SNB-19 CNS
[6] = system: KM12 colon
[7] = system: SW-620 colon
[8] = system: NCI-H226 lung
[9] = system: UO-31 renal
[10] = system: K-562 leukemia
[11] = system: HCT-116 colon
[12] = system: CAKI-1 renal
[13] = system: SK-MEL-5 melanoma
[14] = system: TK-10 renal
[15] = system: NCI-H23 lung
[16] = system: HOP-92 NSCLC
[17] = system: NCI-H522 lung
[18] = system: 786-0 renal
[19] = system: NCI/ADR-RES ovarian
[20] = system: T-47D breast
[21] = system: LOX IMVI melanoma
[22] = system: OVCAR-4 ovarian
[23] = system: IGROV1 ovarian
[24] = system: COLO 205 colon
[25] = system: ACHN renal
[26] = system: HL-60(TB) leukemia
[27] = system: RPMI-8226 leukemia
[28] = system: U251 CNS
[29] = system: SF-268 CNS
[30] = system: SF-539 CNS
[31] = system: M14 melanoma
[32] = system: SF-295 CNS
[33] = system: DU-145 prostate
[34] = system: OVCAR-3 ovarian
[35] = system: SN12C renal
[36] = system: MALME-3M melanoma
[37] = system: HT29 colon
[38] = system: SK-MEL-28 melanoma
[39] = system: NCI-H460 lung
[40] = system: PC-3 prostate
[41] = system: MDA-MB-435
[42] = system: UACC-62 melanoma
[43] = system: SNB-75 CNS
[44] = system: OVCAR-5 ovarian
[45] = system: HCC-2998 colon
[46] = system: HOP-62 NSCLC
[47] = system: MDA-MB-231 breast
[48] = system: SK-MEL-2 melanoma
[49] = system: EKVX NSCLC
[50] = system: CCRF-CEM leukemia
[51] = system: BT-549 breast
[52] = system: HS 578T breast
[53] = system: OVCAR-8 ovarian
[54] = system: HCT-15 colon
[55] = system: RXF 393 renal
[56] = system: MCF7 breast
[57] = system: SK-OV-3 ovarian
[58] = system: MOLT-4 leukemia

With `Nn1c2c(c3ccccc3c1=O)C(=O)c1ccccc1-2` the GI50 [1] was over 50 µM, the TGI [1] was over 50 µM and the GI50 [2] was over 50 µM. The TGI [2] was over 50 µM, the GI50 [3] was 31 µM and the TGI [3] was over 50 µM. The GI50 [4] was over 50 µM, the TGI [4] was over 50 µM and the GI50 [5] was 20.9 µM. The TGI [5] was over 50 µM, the GI50 [6] was over 50 µM and the TGI [6] was over 50 µM. It also gave a GI50 [7] of over 50 µM, a TGI [7] of over 50 µM and a GI50 [8] of 48.3 µM. It also gave a TGI [8] of over 50 µM, a GI50 [9] of over 50 µM and a TGI [9] of over 50 µM. The GI50 [10] was over 50 µM, the TGI [10] was over 50 µM and the GI50 [11] was over 50 µM. The TGI [11] was over 50 µM, the GI50 [12] was over 50 µM and the TGI [12] was over 50 µM. For the same molecule, the GI50 [13] was over 50 µM, the TGI [13] was over 50 µM and the GI50 [14] was 18.1 µM. The TGI [14] was over 50 µM, the GI50 [15] was over 50 µM and the TGI [15] was over 50 µM. It also gave a GI50 [16] of over 50 µM, a TGI [16] of over 50 µM and a GI50 [17] of 30.1 µM. It also gave a TGI [17] of over 50 µM, a GI50 [18] of 37.7 µM and a TGI [18] of over 50 µM. For the same molecule, the GI50 [19] was over 50 µM, the TGI [19] was over 50 µM and the GI50 [20] was over 50 µM. It also gave a TGI [20] of over 50 µM, a GI50 [21] of over 50 µM and a TGI [21] of over 50 µM. For the same molecule, the GI50 [22] was over 50 µM, the TGI [22] was over 50 µM and the GI50 [23] was over 50 µM. For the same molecule, the TGI [23] was over 50 µM, the GI50 [24] was over 50 µM and the TGI [24] was over 50 µM. For the same molecule, the GI50 [25] was over 50 µM, the TGI [25] was over 50 µM and the GI50 [26] was over 50 µM. The TGI [26] was over 50 µM, the GI50 [27] was over 50 µM and the TGI [27] was over 50 µM. For the same molecule, the GI50 [28] was 20.5 µM, the TGI [28] was over 50 µM and the GI50 [29] was 15.7 µM. It also gave a TGI [29] of over 50 µM, a GI50 [30] of 27.9 µM and a TGI [30] of over 50 µM. The GI50 [31] was over 50 µM, the TGI [31] was over 50 µM and the GI50 [32] was 30.1 µM. For the same molecule, the TGI [32] was over 50 µM, the GI50 [33] was over 50 µM and the TGI [33] was over 50 µM. For the same molecule, the GI50 [34] was over 50 µM, the TGI [34] was over 50 µM and the GI50 [35] was over 50 µM. The TGI [35] was over 50 µM, the GI50 [36] was over 50 µM and the TGI [36] was over 50 µM. For the same molecule, the GI50 [37] was over 50 µM, the TGI [37] was over 50 µM and the GI50 [38] was over 50 µM. The TGI [38] was over 50 µM, the GI50 [39] was 40.5 µM and the TGI [39] was over 50 µM. For the same molecule, the GI50 [40] was over 50 µM, the TGI [40] was over 50 µM and the GI50 [41] was over 50 µM. For the same molecule, the TGI [41] was over 50 µM, the GI50 [42] was over 50 µM and the TGI [42] was over 50 µM. It also gave a GI50 [43] of 11.6 µM, a TGI [43] of 33.5 µM and a GI50 [44] of over 50 µM. The TGI [44] was over 50 µM, the GI50 [45] was over 50 µM and the TGI [45] was over 50 µM. For the same molecule, the GI50 [46] was 24.5 µM, the TGI [46] was over 50 µM and the GI50 [47] was over 50 µM. It also gave a TGI [47] of over 50 µM, a GI50 [48] of over 50 µM and a TGI [48] of over 50 µM. It also gave a GI50 [49] of over 50 µM, a TGI [49] of over 50 µM and a GI50 [50] of over 50 µM. The TGI [50] was over 50 µM, the GI50 [51] was over 50 µM and the TGI [51] was over 50 µM. For the same molecule, the GI50 [52] was 18.4 µM, the TGI [52] was over 50 µM and the GI50 [53] was 26.7 µM. The TGI [53] was over 50 µM, the GI50 [54] was over 50 µM and the TGI [54] was over 50 µM. The GI50 [55] was 15.7 µM, the TGI [55] was over 50 µM and the GI50 [56] was 20 µM. For the same molecule, the TGI [56] was over 50 µM.

For `COc1ccc2c(c1)[n+]([O-])c(C#N)c(NC(=O)c1cccs1)[n+]2[O-]`, the GI50 [1] was over 100 µM, the TGI [1] was over 100 µM and the GI50 [2] was over 100 µM. For the same molecule, the TGI [2] was over 100 µM, the GI50 [3] was over 100 µM and the TGI [3] was over 100 µM. For the same molecule, the GI50 [4] was over 100 µM, the TGI [4] was over 100 µM and the GI50 [5] was over 100 µM. For the same molecule, the TGI [5] was over 100 µM, the GI50 [6] was over 100 µM and the TGI [6] was over 100 µM. For the same molecule, the GI50 [7] was over 100 µM, the TGI [7] was over 100 µM and the GI50 [8] was over 100 µM. It also gave a TGI [8] of over 100 µM, a GI50 [9] of over 100 µM and a TGI [9] of over 100 µM. The GI50 [10] was over 100 µM, the TGI [10] was over 100 µM and the GI50 [11] was over 100 µM. For the same molecule, the TGI [11] was over 100 µM, the GI50 [12] was over 100 µM and the TGI [12] was over 100 µM. The GI50 [13] was over 100 µM, the TGI [13] was over 100 µM and the GI50 [14] was over 100 µM. For the same molecule, the TGI [14] was over 100 µM, the GI50 [15] was over 100 µM and the TGI [15] was over 100 µM. The GI50 [16] was over 100 µM, the TGI [16] was over 100 µM and the GI50 [17] was over 100 µM. It also gave a TGI [17] of over 100 µM, a GI50 [18] of over 100 µM and a TGI [18] of over 100 µM. It also gave a GI50 [19] of over 100 µM, a TGI [19] of over 100 µM and a GI50 [20] of over 100 µM. The TGI [20] was over 100 µM, the GI50 [21] was over 100 µM and the TGI [21] was over 100 µM. It also gave a GI50 [22] of over 100 µM, a TGI [22] of over 100 µM and a GI50 [24] of over 100 µM. The TGI [24] was over 100 µM, the GI50 [25] was over 100 µM and the TGI [25] was over 100 µM. The GI50 [26] was over 100 µM, the TGI [26] was over 100 µM and the GI50 [27] was over 100 µM. The TGI [27] was over 100 µM, the GI50 [28] was over 100 µM and the TGI [28] was over 100 µM. For the same molecule, the GI50 [29] was over 100 µM, the TGI [29] was over 100 µM and the GI50 [30] was over 100 µM. It also gave a TGI [30] of over 100 µM, a GI50 [31] of over 100 µM and a TGI [31] of over 100 µM. It also gave a GI50 [32] of over 100 µM, a TGI [32] of over 100 µM and a GI50 [33] of over 100 µM. It also gave a TGI [33] of over 100 µM, a GI50 [34] of over 100 µM and a TGI [34] of over 100 µM. For the same molecule, the GI50 [35] was over 100 µM, the TGI [35] was over 100 µM and the GI50 [36] was over 100 µM. For the same molecule, the TGI [36] was over 100 µM, the GI50 [37] was over 100 µM and the TGI [37] was over 100 µM. The GI50 [38] was over 100 µM, the TGI [38] was over 100 µM and the GI50 [39] was over 100 µM. The TGI [39] was over 100 µM, the GI50 [40] was over 100 µM and the TGI [40] was over 100 µM. The GI50 [41] was over 100 µM, the TGI [41] was over 100 µM and the GI50 [42] was over 100 µM. The TGI [42] was over 100 µM, the GI50 [57] was over 100 µM and the TGI [57] was over 100 µM. It also gave a GI50 [43] of over 100 µM, a TGI [43] of over 100 µM and a GI50 [44] of over 100 µM. The TGI [44] was over 100 µM, the GI50 [45] was over 100 µM and the TGI [45] was over 100 µM. The GI50 [46] was over 100 µM, the TGI [46] was over 100 µM and the GI50 [47] was over 100 µM. It also gave a TGI [47] of over 100 µM, a GI50 [49] of over 100 µM and a TGI [49] of over 100 µM. The GI50 [50] was over 100 µM, the TGI [50] was over 100 µM and the GI50 [51] was over 100 µM. It also gave a TGI [51] of over 100 µM, a GI50 [52] of over 100 µM and a TGI [52] of over 100 µM. The GI50 [53] was over 100 µM, the TGI [53] was over 100 µM and the GI50 [54] was over 100 µM. The TGI [54] was over 100 µM, the GI50 [55] was over 100 µM and the TGI [55] was over 100 µM. For the same molecule, the GI50 [56] was over 100 µM, the TGI [56] was over 100 µM and the GI50 [58] was over 100 µM. The TGI [58] was over 100 µM.

Reference: PubChem BioAssay (NCI)
